This passage reports ED50, Activity and EC50 results from ChEMBL document CHEMBL1122759, “6-Hydroxy-4-[2-(di-n-propylamino)ethyl]indole: synthesis and dopaminergic actions” (1984).

Experiment [1] deals with Felis catus. The experiment can be described thus: Compound tested in vivo for sympathetic neuronal activity in cat cardioaccelerator nerve after iv administration. Conditions: Sympathetic neuron. The class given is functional.
Experiment [2] has as its system Felis catus. The experiment can be described thus: Compound tested in vitro for sympathetic neuronal activity in cat atria […]; no inhibition with concentrations uM. The class given is functional. The note with it: Sympathetic neuron.
Experiment [3] has as its target T1, Dopamine receptor (Homo sapiens) (UniProt P14416+P35462+P21918+P21917+P21728). Briefly: […] inhibitory activity against dopamine receptor in isolated cat atria; inactive. Conditions: Felis catus; target entry is the homologue from another species.
In experiment [4] the test system is Felis catus. Briefly: Compound tested in vitro for sympathetic neuronal activity in cat atria […]. The class given is functional. The note with it: Sympathetic neuron, read-out: ED50 (the source's name).
Experiment [5] concerns Felis catus. Briefly: Compound tested in vivo for sympathetic neuronal activity in cat cardioaccelerator nerve after intraduodenal administration. The class given is functional. Conditions: Sympathetic neuron.
The target in experiment [6] is T1, Dopamine receptor (Homo sapiens). Briefly: […] inhibitory activity against dopamine receptor in isolated cat atria; active. Conditions: Felis catus; target entry is the homologue from another species.

Active and inactive are the calls of the source. The calls are words filed in the database; no cut-off is given here.

`CN1C[C@H](CC#N)C[C@@H]2c3cccc4[nH]c(Cl)c(c34)C[C@H]21` [LERGOTRILE] yielded a median effective dose (ED50) in the experiment with Felis catus [1] of 0.27 µmol/kg.
On to `CCCN(CCC)CCc1cccc2[nH]ccc12`, for which the ED50 entry in the experiment with Felis catus [2] is “inactive”. This compound also returned a median effective dose (ED50) with Felis catus [1] of 0.22 µmol/kg. Moreover, the result in experiment [3] was inactive.
As to `CCCN(CCC)CCc1cc(O)cc2[nH]ccc12`, the EC50 in the experiment on Felis catus [4] was 27 nM. For the same compound, the figures for the ED50 in the experiment with Felis catus [5] and with Felis catus [1] were 0.047 µmol/kg and 0.019 µmol/kg, respectively. The result in experiment [6] was Active.

The ED50 is the dose that gives a 50% effect, or the effect in half of the subjects.
